Laboratory results taken from article PMC3260207, “Site-Directed Mutations and the Polymorphic Variant Ala160Thr in the Human Thromboxane Receptor Uncover a Structural Role for Transmembrane Helix 4” (PLoS ONE, 2012).
Where a chain is given by its changes, count along the chain named.

Experiments:
[1] = biological target: T1, TP F115A mutant (Homo sapiens, UniProt P21731, F115A); assay: Saturation radioligand binding with [3H] SQ 29,548, membranes; design: expressed in transfected cells; host or cells: COS-1 cells (membranes), transient, pMT4; details: picomoles of TP per milligram of total membrane protein, mean ± S.E
T1 sequence (P21731 1-343 F115A): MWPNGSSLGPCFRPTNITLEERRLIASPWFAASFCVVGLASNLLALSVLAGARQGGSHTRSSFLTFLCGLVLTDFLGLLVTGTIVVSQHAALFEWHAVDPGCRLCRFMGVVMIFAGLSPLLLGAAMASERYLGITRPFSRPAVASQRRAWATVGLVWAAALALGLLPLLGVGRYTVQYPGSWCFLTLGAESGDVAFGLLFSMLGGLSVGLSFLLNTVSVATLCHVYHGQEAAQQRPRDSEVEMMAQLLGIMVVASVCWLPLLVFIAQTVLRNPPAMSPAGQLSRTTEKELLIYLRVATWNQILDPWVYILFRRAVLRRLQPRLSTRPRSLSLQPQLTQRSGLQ
Method: (§1) Amino acid substitutions were introduced into the synthetic TPα gene carried by the expression vector pMT4 as described previously, [29]. DNA sequences of all the mutated genes were verified by automated DNA sequencing. To minimize variations in transfection efficiency, the total amount transfected DNA was kept constant in all cases at 1 µg of DNA per 7×10^5 cells. The wild type TP or mutant genes were expressed in COS-1 cells using a DEAE-dextran based transient transfection method, [29], and in HEK293T cells using lipofectamine 2000 (Invitrogen). Except unless specified, the membranes prepared from COS-1 cells were used for radioligand binding assays and immunoblots. […] The protein concentration in the resuspended membrane pellet was determined using a modified DC protein assay kit from Bio-Rad Laboratories (Hercules, CA).
(§2) These were carried out in Buffer C for 60 min at room temperature, using 2 to 20 µg of membrane protein and different concentrations of [^3H] […] Filter-bound radioactivity was measured using a liquid scintillation counter. Equilibrium dissociation constants (Kd) were determined from saturation isotherms using PRISM software version 5.0 (GraphPad Software Inc, San Diego, CA, USA). The Ki values were calculated from the IC50, using the equation of Cheng and Prusoff by PRISM software version 5.0.

[2] = biological target: T2, TP A160V/F115A double mutant (Homo sapiens, UniProt P21731, A160V/F115A); assay: as above; design: expressed in transfected cells; host or cells: COS-1 cells (membranes), transient, pMT4; details: picomoles of TP per milligram of total membrane protein, mean ± S.E
T2 sequence (P21731 1-343 F115A/A160V): T1 sequence (P21731 1-343 F115A) with A160V
Method: as §1, §2

[3] = biological target: T3, TP F107A mutant (Homo sapiens, UniProt P21731, F107A); assay: as above; details: picomoles of TP per milligram of total membrane protein, mean ± S.E
T3 construct: expressed in transfected cells; HEK293T (calcium assays)
T3 sequence (P21731 1-343 F107A): T1 sequence (P21731 1-343 F115A) with F107A, A115F
Method: (§3) Amino acid substitutions were introduced into the synthetic TPα gene carried by the expression vector pMT4 as described previously, [29]. DNA sequences of all the mutated genes were verified by automated DNA sequencing. To minimize variations in transfection efficiency, the total amount transfected DNA was kept constant in all cases at 1 µg of DNA per 7×10^5 cells. The wild type TP or mutant genes were expressed in COS-1 cells using a DEAE-dextran based transient transfection method, [29], and in HEK293T cells using lipofectamine 2000 (Invitrogen). Except unless specified, the membranes prepared from COS-1 cells were used for radioligand binding assays and immunoblots. For intracellular calcium determination assays and immunofluorescence imaging, HEK293T cells were used. For transient transfections of HEK293T cells using the plasmid pMT4, lipofectamine 2000 (Invitrogen) mediated transfection was used as described by the manufacturer. Membranes were prepared using Buffers A and B and as described previously, [29]. The protein concentration in the resuspended membrane pellet was determined using a modified DC protein assay kit from Bio-Rad Laboratories (Hercules, CA).
(§4) These were carried out in Buffer C for 60 min at room temperature, using 2 to 20 µg of membrane protein and different concentrations of [^3H] […] Binding of [^3H] […] Competition binding assays were performed using 4 nM [^3H] […] Binding was terminated by filtering under vacuum on GF/A filters (Millipore). Filter-bound radioactivity was measured using a liquid scintillation counter. Equilibrium dissociation constants (Kd) were determined from saturation isotherms using PRISM software version 5.0 (GraphPad Software Inc, San Diego, CA, USA). The Ki values were calculated from the IC50, using the equation of Cheng and Prusoff by PRISM software version 5.0.

[4] = biological target: T4, WT-TP (wild type human thromboxane A2 receptor TPα) (Homo sapiens, UniProt P21731); assay: as above; details: picomoles of TP per milligram of total membrane protein, mean ± S.E
T4 construct: expressed in transfected cells; HEK293T (calcium assays)
T4 sequence (P21731 1-343): T1 sequence (P21731 1-343 F115A) with A115F
Method: as §3, §4

[5] = biological target: T1, TP F115A mutant; assay: Intracellular calcium mobilization (Fluo-4NW) in transfected HEK293T cells; format: cell-based; design: expressed in transfected cells; transient, pMT4; details: read-out: EC50 of agonist U46619 (calcium mobilized), transiently transfected HEK293T cells, mean ± S.E
Method: as §1, with “immunoblots. For intracellular calcium determination assays and immunofluorescence imaging, HEK293T cells were used.” for “immunoblots.”
(§5) Changes in intracellular calcium were measured by using the fluorescent calcium sensitive dye Fluo-4NW (Invitrogen). […] Dose–response curves were generated and EC50 values calculated by nonlinear regression analysis using PRISM software version 5.0 (GraphPad Software Inc, San Diego, CA) after subtracting the responses of mock-transfected cells stimulated with same concentrations of agonists.

[6] = biological target: T2, TP A160V/F115A double mutant; assay: as above; format: cell-based; design: expressed in transfected cells; transient, pMT4; details: read-out: EC50 of agonist U46619 (calcium mobilized), transiently transfected HEK293T cells, mean ± S.E
Method: as §1, with “immunoblots. For intracellular calcium determination assays and immunofluorescence imaging, HEK293T cells were used.” for “immunoblots.”
as §5

Row | SMILES | Bmax, binding maximum of the ligand SQ 29,548 for the receptor [1] [pmol/mg] | Bmax, binding maximum of the ligand SQ 29,548 for the receptor [2] [pmol/mg] | Bmax, binding maximum of the ligand SQ 29,548 for the receptor [3] [pmol/mg] | Bmax, binding maximum of the ligand SQ 29,548 for the receptor [4] [pmol/mg] | EC50 [5] [nM] | EC50 [6] [nM]
1 | O=C(O)CCC/C=C\C[C@@H]1[C@H](CNNC(=O)Nc2ccccc2)[C@H]2CC[C@@H]1O2 [SQ 29,548] | 1.8 ± 0.2 | 2.1 ± 0.4 | 1.8 ± 0.2 | 3.8 ± 0.3 | – | –
2 | CCCCC[C@H](O)/C=C/[C@@H]1[C@@H](C/C=C\CCCC(=O)O)[C@H]2CO[C@@H]1C2 [U46619] | – | – | – | – | 2 ± 0.3 | 43.5 ± 1.5
